Read-outs that look alike come from different tables or passages of the source.
Legend:
Sprague-Dawley rats [1] = experiment: In-life observations, 28-day repeated dose oral toxicity study; assay type: in vivo, Rattus norvegicus
Excerpt: The experimental protocol followed the OECD 407 Guideline on Repeated dose 28-day oral toxicity study in rodents, which was enhanced for detection of endocrine, neurotoxicity, retinoid, bone and DNA damage endpoints. In order to improve the assessment of dose-response relationships the number of rats per gender per dose group was reduced to 5 and the amount of dose groups was increased to 8. To rapidly achieve the kinetic steady state, the total dose was divided into 6 daily loading doses and 3 weekly maintenance doses, which were calculated according to the formula [21]. [drawing 1] where [drawing 2] = loading dose
Loading doses were administered on days 0–5 and maintenance doses on days 10, 17 and 24 of the study. Selection of the highest dose was based on a pilot study.
Food and water consumption per cage was recorded once weekly. For determination of the stage of the estrous cycle vaginal smears were collected from female rats daily starting from day 23 of the study. This was done to ensure that the females were at the diestrous stage during necropsy.

Sprague-Dawley rats [2] = experiment: Liver p53 and DNA damage markers, Western blotting; assay type: in vivo, Rattus norvegicus; conditions: for Emax: Rattus norvegicus
Procedure: Liver p53, Mdm2 and DNA damage related markers were assessed by Western blotting analysis. Proteins of the liver homogenates were quantified using Coomassie Plus Protein Assay Reagent (Pierce, Täby, Sweden). The samples were subjected to SDS-PAGE, the separated proteins were transferred to a polyvinylidene difluoride membrane (Bio-Rad, Hercules, CA, USA) and blocked in 10% non-fatty milk for 1 h. The protein bands were subsequently probed with antibodies overnight at 4°C.
The primary antibody for total p53 DO-1 was purchased from Novocastra (Newcastle, UK). Primary antibodies for DNA-damage marker were phospho-p53 (Ser-15), phospho-Chk2 (Thr-68), phospho-Mdm2 (Ser-166), phospho-Akt (Ser-473) (Cell Signaling Technology, Stockholm, Sweden) phospho-Erk (Tyr-204) (E-4) and the loading control Cdk2 (M2) (sc-7383 resp. sc-163, Santa Cruz Biotechnology, Santa Cruz, CA, USA). Secondary antibodies used were goat anti-rabbit IgG, goat anti-mouse IgG (sc-2004 resp. sc-2005, Santa Cruz Biotechnology). No signals were obtained when primary antibodies were omitted. […]. The results were visualized by the ECL or ECL plus detection kits (Amersham GE Healthcare Bio-sciences AB, Uppsala, Sweden). Cdk2 was used as a loading control.
Data were also analyzed using the BMD method, which is based on dose-response modeling of the full data set using a nested family of exponential and Hill models. The analyses were done on data of males and females combined, using sex as a covariate. […] In that case, different Critical Effect Doses (CEDs) and CEDs at the lowest bound of the confidence interval (CED-L) were generated for each sex. If no difference between sexes is detected, a CED and CED-Ls for the combined data is generated. However, this was also done if the curve fits are close, and separate analyses for males and females were then performed manually. […]

Liver enzymes = system: Liver enzymes; parameters: method as in Roos et al., 2011; conditions: 2011, cited from earlier work; for CED, CYP3A1 mRNA / CED-L, CYP3A1 mRNA: model E4; for CED, CYP3A1 mRNA / CED-L, CYP3A1 mRNA / CED, CYP2B1 mRNA / CED-L, CYP2B1 mRNA: adipose tissue concentration based, enzyme induction data ref Roos et al.; for CED, CYP2B1 mRNA / CED-L, CYP2B1 mRNA: model E5; for CYP2B1 mRNA, CED / CYP2B1 mRNA, CED-L / CYP3A1 mRNA, CED / CYP3A1 mRNA, CED-L: total dose based, ref Roos et al.
[3] = cited from earlier work
[4] = F, CES 5%, model E4, adipose tissue concentration based
[5] = F, CES 5%, model E5, adipose tissue concentration based
[6] = F, CES 100%, model E4, adipose tissue concentration based
[7] = F, CES 100%, model E5, adipose tissue concentration based
[8] = females, CES 5%, total dose based
[9] = females, CES 100%, adipose tissue concentration based
[10] = females, CES 100%, total dose based
[11] = females, adipose tissue concentration based

Clc1cc(Cl)c(-c2cc(Cl)c(Cl)c(Cl)c2Cl)cc1Cl [PCB 180, 2,2′,3′,4,4′,5,5′-heptachlorobiphenyl]
Body weight development (Sprague-Dawley rats [1]; 1700 mg/kg bw, both genders, during loading dosing, recovered completely by end of study): retarded | Feed consumption, maximal temporary reduction (Sprague-Dawley rats [1]; females, three highest doses, during loading dosing): about 20% | Feed consumption, maximal temporary reduction (Sprague-Dawley rats [1]; males, two highest doses, during loading dosing): about 25% | Water consumption (Sprague-Dawley rats [1]; rat, in vivo): unaffected | Mortality (Sprague-Dawley rats [1]; total doses 3-1700 mg/kg bw, both genders): no mortality | CED, Liver p53 (Sprague-Dawley rats [2]; [4]): 65.2 µg/g lipid | CED-L, Liver p53 (Sprague-Dawley rats [2]; [4]): 30.0 µg/g lipid | CED, Liver p53 Ser15 (Sprague-Dawley rats [2]; [5]): 361 µg/g lipid | CED, Liver pChk2 Thr68 (Sprague-Dawley rats [2]; [5]): 337 µg/g lipid | CED-L, Liver p53 Ser15 (Sprague-Dawley rats [2]; [5]): 124 µg/g lipid | CED-L, Liver pChk2 Thr68 (Sprague-Dawley rats [2]; [5]): 98.2 µg/g lipid | CED, Liver p53 (Sprague-Dawley rats [2]; [6]): 2240 µg/g lipid | CED-L, Liver p53 (Sprague-Dawley rats [2]; [6]): 1053 µg/g lipid | CED, Liver p53 Ser15 (Sprague-Dawley rats [2]; [7]): 438 µg/g lipid | CED, Liver pChk2 Thr68 (Sprague-Dawley rats [2]; [7]): 382 µg/g lipid | CED-L, Liver p53 Ser15 (Sprague-Dawley rats [2]; [7]): 411 µg/g lipid | CED-L, Liver pChk2 Thr68 (Sprague-Dawley rats [2]; [7]): 165 µg/g lipid | Emax (Sprague-Dawley rats [2]; F, model E4, controls vs high dose according to the fitted model, read-out: Maximum response, Liver p53): 141% | Emax (Sprague-Dawley rats [2]; females, controls vs high dose, fitted model, read-out: Liver p53, Maximum response): 142% | Emax (Sprague-Dawley rats [2]; females, controls vs high dose, fitted model, read-out: Liver p53 Ser15, Maximum response): 181% | Emax (Sprague-Dawley rats [2]; females, controls vs high dose, fitted model, read-out: Liver pChk2 Thr68, Maximum response): 185% | Emax (Sprague-Dawley rats [2]; F, model E5, controls vs high dose according to the fitted model, read-out: Maximum response, Liver p53 Ser15): 181% | Emax (Sprague-Dawley rats [2]; F, model E5, controls vs high dose according to the fitted model, read-out: Maximum response, Liver pChk2 Thr68): 185% | Liver p53, CED (Sprague-Dawley rats [2]; [8]): 14.1 mg/kg bw | Liver p53, CED-L (Sprague-Dawley rats [2]; [8]): 5.89 mg/kg bw | Liver p53 Ser15, CED (Sprague-Dawley rats [2]; [8]): 79.2 mg/kg bw | Liver p53 Ser15, CED-L (Sprague-Dawley rats [2]; [8]): 19.5 mg/kg bw | Liver pChk2 Thr68, CED (Sprague-Dawley rats [2]; [8]): 72.9 mg/kg bw | Liver pChk2 Thr68, CED-L (Sprague-Dawley rats [2]; [8]): 31.5 mg/kg bw | Liver p53 Ser15, CED (100%) (Sprague-Dawley rats [2]; [9]): 438 µg/g lipid | Liver pChk2 Thr68, CED (100%) (Sprague-Dawley rats [2]; [9]): 382 µg/g lipid | Liver p53, CED (Sprague-Dawley rats [2]; [10]): 472 mg/kg bw | Liver p53, CED-L (Sprague-Dawley rats [2]; [10]): 210 mg/kg bw | Liver p53 Ser15, CED (Sprague-Dawley rats [2]; [10]): 101 mg/kg bw | Liver p53 Ser15, CED-L (Sprague-Dawley rats [2]; [10]): 93.0 mg/kg bw | Liver pChk2 Thr68, CED (Sprague-Dawley rats [2]; [10]): 81.1 mg/kg bw | Liver pChk2 Thr68, CED-L (Sprague-Dawley rats [2]; [10]): 41.8 mg/kg bw | Liver p53, CED (Sprague-Dawley rats [2]; [11]): 2240 µg/g lipid | Liver p53, CED-L (Sprague-Dawley rats [2]; [11]): 30000 ng/g lipid | CED, CYP3A1 mRNA (Liver enzymes; F, CES 5%): 6.75 µg/g lipid | CED-L, CYP3A1 mRNA (Liver enzymes; F, CES 5%): 3.19 µg/g lipid | CED, CYP2B1 mRNA (Liver enzymes; F, CES 5%): 12.4 µg/g lipid | CED-L, CYP2B1 mRNA (Liver enzymes; F, CES 5%): 5.74 µg/g lipid | CED, CYP3A1 mRNA (Liver enzymes; F, CES 10%): 13.5 µg/g lipid | CED-L, CYP3A1 mRNA (Liver enzymes; F, CES 10%): 6.39 µg/g lipid | CED, CYP2B1 mRNA (Liver enzymes; F, CES 10%): 15.5 µg/g lipid | CED-L, CYP2B1 mRNA (Liver enzymes; F, CES 10%): 7.76 µg/g lipid | CED, CYP3A1 mRNA (Liver enzymes; M, CES 5%): 5.88 µg/g lipid | CED-L, CYP3A1 mRNA (Liver enzymes; M, CES 5%): 3.63 µg/g lipid | CED, CYP2B1 mRNA (Liver enzymes; M, CES 5%): 1.52 µg/g lipid | CED-L, CYP2B1 mRNA (Liver enzymes; M, CES 5%): 0.584 µg/g lipid | CED, CYP3A1 mRNA (Liver enzymes; M, CES 10%): 11.8 µg/g lipid | CED-L, CYP3A1 mRNA (Liver enzymes; M, CES 10%): 7.26 µg/g lipid | CED, CYP2B1 mRNA (Liver enzymes; M, CES 10%): 2.15 µg/g lipid | CED-L, CYP2B1 mRNA (Liver enzymes; M, CES 10%): 0.895 µg/g lipid | CYP2B1 mRNA, CED (Liver enzymes; females, CES 5%): 1.70 mg/kg bw | CYP2B1 mRNA, CED-L (Liver enzymes; females, CES 5%): 0.90 mg/kg bw | CYP3A1 mRNA, CED (Liver enzymes; females, CES 5%): 1.50 mg/kg bw | CYP3A1 mRNA, CED-L (Liver enzymes; females, CES 5%): 0.70 mg/kg bw | CYP2B1 mRNA, CED (Liver enzymes; females, CES 10%): 2.20 mg/kg bw | CYP2B1 mRNA, CED-L (Liver enzymes; females, CES 10%): 1.20 mg/kg bw | CYP3A1 mRNA, CED (Liver enzymes; females, CES 10%): 2.90 mg/kg bw | CYP3A1 mRNA, CED-L (Liver enzymes; females, CES 10%): 1.40 mg/kg bw | CYP2B1 mRNA, CED (Liver enzymes; males, CES 5%): 0.70 mg/kg bw | CYP2B1 mRNA, CED-L (Liver enzymes; males, CES 5%): 0.40 mg/kg bw | CYP3A1 mRNA, CED (Liver enzymes; males, CES 5%): 1.40 mg/kg bw | CYP3A1 mRNA, CED-L (Liver enzymes; males, CES 5%): 0.90 mg/kg bw | CYP2B1 mRNA, CED (Liver enzymes; males, CES 10%): 1.00 mg/kg bw | CYP2B1 mRNA, CED-L (Liver enzymes; males, CES 10%): 0.50 mg/kg bw | CYP3A1 mRNA, CED (Liver enzymes; males, CES 10%): 2.90 mg/kg bw | CYP3A1 mRNA, CED-L (Liver enzymes; males, CES 10%): 1.80 mg/kg bw | Elimination half-life ([3]; adult humans, estimated): 11.5 years | Elimination half-life ([3]; early adolescent children): 9.8 years

— PMC4138103 (PLoS ONE, 2014)
